Data as given in patent publication US12486241B2, “Cystine diamide analogs for cystinuria” (Rutgers, The State University of New Jersey, priority 2019, dated 2025).
Where a name gives a salt, the structure may show the parent alone.

What was measured:
[1] = L-cystine crystallization inhibition assay (metastable supersaturated L-cystine solution; L-cystine concentration by fluorescence or cyanide-nitroprusside colorimetric assay); details: for Ratio (improvement in potency over the control): footnote names L-cystine dimethylester (CDME) as control, LH708 = 1.00; for EC50: test compound in L-cystine supersaturated solution (~3 mM), 25° C. for 72 h, read-out: EC50 (Aqueous Solubility of L-Cystine)
Description: Example 21 Preparation of the Metastable Supersaturated Solution of L-Cystine and the Cystallizaiton Inhibition Assay
For the preparation of L-cystine supersaturated solution 70 mg of L-cystine was dissolved in 100 mL of Millipore water (˜3 mM) under reflux at 120° C. for 30 min until the L-cystine was completely dissolved. The supersaturated solution was then allowed to cool slowly with stirring until the oil bath temperature reached 40° C. take about 70 min depending on the lab atmosphere. To determine the L-cystine concentration all test compounds were dissolved in water to form 10 mM stock solution. Five uL of each solution was added to 495 uL L-cystine supersaturated solution. The mixtures were allowed to stand at 25° C. for 72 h. At the end of incubation, the mixtures were centrifuged at 13,000 rpm for 5 min and the supernatants were diluted 10-fold for concentration measurement. To construct the standard curves L-Cystine (2.1 mg) was dissolved in 0.1 M Na2CO3 solution (9 mL) to form a 1 mM solution as a stock solution. Then, 50 uL L-cystine stock solution was diluted to 0.6 mM with 0.1 M Na2CO3 ([…]) solution and to 0.4, 0.2, 0.1, 0.05 mM solution using Millipore water 75, 200, 450 and 950 uL, respectively.
Fluorescence Assay for the Determination of L-Cystine Concentration
10 μL of each L-cystine solutions or test compound diluted mixtures, 100 μL of DTT solution (12.5 mM) in 0.1 M dibasic sodium phosphate solution (1:9), were mixed at r.t. for 10 min, before the addition of 10 μL of iodoacetic acid (100 mM) and continued incubation at r.t. for an additional 15 min. This was then followed by the addition of 20 μL of OPA (100 mM in methanol)/NBC (100 mM in methanol) (1:1). The derivatization was allowed to proceed for 3 min before 3×40 μL of the mixture were placed in a 384-well plate and read at Ex 355 nm/Em 460 nm. The standard curve was repeated for each set of experiments and used to calculate the concentration of L-cystine in each sample.
Cyanide-Nitroprusside Colorimetric Assay for the Determination of L-Cystine Concentration
3×40 μL of each L-cystine solutions or test compound diluted mixtures were placed in a 96-well plate (black, clear bottom). 80 μL of aqueous solution of potassium cyanide (30% w/v) in PBS (pH=7.4) (1:7) was added to each well then the plate was left to shake at 550 rpm for 25 min. 10 μL of aqueous solution of sodium nitroprusside (20% w/v) was added to each well using automated dispenser then the plate was centrifuged immediately at 1500 rpm for 20 sec. Then the UV absorbance was measured at 530 nm using Victor 3 V plate reader. The standard curve was repeated for each plate and used to calculate the concentration of L-cystine in each sample.

rats = details: cited from earlier work
cell culture = cell culture experiments; cited from earlier work
[2] = in water; cited from earlier work

Row | SMILES | Ratio (improvement in potency over the control) [1] | EC50 [1] [nM] | Dosage demonstrating adverse effects (rats) | Concentration causing loss of cell viability (cell culture) | Concentration at which crystallization of L-cystine is almost completely inhibited [2]
1 | N[C@@H](CSSC[C@H](N)C(=O)N1CCNCC1)C(=O)N1CCNCC1 [LH1726, L-Cystine bispiperazide tetrahydrochloride] | 0.81 | 52.6 ± 0.8 |  |  | 
2 | N[C@@H](CSSC[C@H](N)C(=O)NCCN1CCCC1)C(=O)NCCN1CCCC1 [LH1735, L-Cystine bis(N′-pyrrolidinoethyleneamide) tetrahydrochloride] | 0.37 | 116 ± 6.1 |  |  | 
3 | CC(C)(C)N1CCN(C(=O)[C@@H](N)CSSC[C@H](N)C(=O)N2CCN(C(C)(C)C)CC2)CC1 [LH1729, L-Cystine bis(N′-tert-butylpiperazide) tetrahydrochloride] | 1.34 | 32 ± 2.5 |  |  | 
4 | COC(=O)[C@@H](N)CSSC[C@H](N)C(=O)OC [CDME, L-cystine dimethylester] |  |  | approximately 500 mg/kg per day | approximately 1 mM | above 2 mg/L
5 | CN(C)CCCNC(=O)[C@@H](N)CSSC[C@H](N)C(=O)NCCCN(C)C [LH1739, L-Cystine bis (N′,N′-dimethyl-1′,3′-diaminopropaneamide) tetrahydrochloride] | 0.37 | 114 ± 9.4 |  |  | 
6 | N[C@@H](CSSC[C@H](N)C(=O)N1CCN(C2CCCC2)CC1)C(=O)N1CCN(C2CCCC2)CC1 [LH1731, L-Cystine bis(N′-cyclopentylpiperazide) tetrahydrochloride] | 1.08 | 39.5 ± 1.3 |  |  | 
7 | N[C@@H](CSSC[C@H](N)C(=O)NCCCN1CCCC1)C(=O)NCCCN1CCCC1 [LH1740, L-Cystine bis(1′-pyrrolidine-3′-aminopropaneamide) tetrahydrochloride] | 0.26 | 163 ± 12.5 |  |  | 
8 | CN(C)C1CCN(C(=O)[C@@H](N)CSSC[C@H](N)C(=O)N2CCC(N(C)C)CC2)CC1 [LH1751, L-Cystine bis(4′-(dimethylamino)-piperidineamide) tetrahydrochloride] | 0.84 | 51.2 ± 3.7 |  |  | 
9 | N[C@@H](CSSC[C@H](N)C(=O)NCCCN1CCOCC1)C(=O)NCCCN1CCOCC1 [LH1741, L-Cystine bis (1′-morpholine-3′-aminopropaneamide) tetrahydrochloride] | 0.27 | 160 ± 10.6 |  |  | 
10 | CC1(C)CNCCN1C(=O)[C@@H](N)CSSC[C@H](N)C(=O)N1CCNCC1(C)C [LH1733, L-Cystine bis(2′,2′-dimethylpiperazide) tetrahydrochloride] | 0.40 | 108 ± 3.1 |  |  | 
11 | N[C@@H](CSSC[C@H](N)C(=O)NCCN1CCOCC1)C(=O)NCCN1CCOCC1 [LH1738, L-Cystine bis(N′-morpholinoethyleneamide) tetrahydrochloride] | 0.54 | 79.7 ± 7.7 |  |  | 
12 | N[C@@H](CSSC[C@H](N)C(=O)N1CCCC12CCNCC2)C(=O)N1CCCC12CCNCC2 [LH1754, L-Cystine bis(1,8-Diazaspiro[4.5]decan-1-yl) tetrahydrochloride] | 0.36 | 120 ± 13 |  |  | 
13 | CN1CCN(C(=O)[C@@H](N)CSSC[C@H](N)C(=O)N2CCN(C)CC2)CC1 [LH708, reference compound] | 1.00 | 42.8 ± 0.7 |  |  | 
14 | N[C@@H](CSSC[C@H](N)C(=O)N1CCC(N2CCCC2)CC1)C(=O)N1CCC(N2CCCC2)CC1 [LH1752, L-Cystine bis(4′-(1″-Pyrrolidinyl)piperidine) tetrahydrochloride] | 1.17 | 36.5 ± 1.6 |  |  | 
15 | N[C@@H](CSSC[C@H](N)C(=O)N1CCC2(CCCN2)CC1)C(=O)N1CCC2(CCCN2)CC1 [LH1753, L-Cystine bis(1,8-Diazaspiro[4.5]decan-8-yl) tetrahydrochloride] | 1.70 | 25.1 ± 2.4 |  |  | 
16 | N[C@@H](CSSC[C@H](N)C(=O)NCCN1CCCCC1)C(=O)NCCN1CCCCC1 [LH1737, L-Cystine bis(N′-piperidinoethyleneamide) tetrahydrochloride] | 0.30 | 143 ± 9.8 |  |  | 
17 | N[C@@H](CSSC[C@H](N)C(=O)N1CCN(C2CC2)CC1)C(=O)N1CCN(C2CC2)CC1 [LH1730, L-Cystine bis(N′-cyclopropylpiperazide) tetrahydrochloride] | 0.62 | 68.8 ± 4.1 |  |  | 
18 | CN(C)CCNC(=O)[C@@H](N)CSSC[C@H](N)C(=O)NCCN(C)C [LH1734, L-Cystine bis (N′,N′-dimethylethyleneamide) tetrahydrochloride] | 0.26 | 163 ± 10.8 |  |  | 
19 | N[C@@H](CSSC[C@H](N)C(=O)N1CCN(c2ccccc2)CC1)C(=O)N1CCN(c2ccccc2)CC1 [LH1732] | 0.09 | 500 ± 26.5 |  |  | 
